Laboratory results published in patent publication US5329012A, “Bis(acyloxmethyl)imidazole compounds” (The Research Foundation of State University of New York, priority 1987, dated 1994).
“And” between values parts separate entries of the source, which are not always exact repeats. Identical values can stand only once. Like-named read-outs stand apart in the source and are kept apart here.

Tests used:
[1] = system: lymphocytic leukemia P-388; assay: P-388 lymphocytic leukemia test in mice (NCI Protocol 1.200); assay type: in vivo, CDF1 female mice; conditions: for Tox.Day Surv. (survivors/animals tested): day 5
Method: Various bis(acyloxymethyl)imidazole derivatives prepared in accord with Examples I-XVIII and designated Samples A-J, were tested for anti-tumor activity in vivo using the lymphocytic leukemia P-388 test procedure in mice with Samples A and B representing controls. The test system was that employed by the National Cancer Institute (NCI) for the preliminary screening of anti-tumor agents, according to Protocol 1.200 (Cancer Chemo. Reports Part 3, Vol. 3, No. 2, page 9; 1972). In the study ascitic fluid containing 6×10^6 cells was implanted in the peritoneal cavity of CDF1 female mice. Each imidazole was given in a single injection, at four to six different dose levels (5-6 mice/dose level) daily for five (5) days beginning 24 hours after tumor innoculation. The control animals received saline. Test criteria was in accord with NCI protocol as follows: toxicity day evaluations were carried out on day 5 (number of survivors/number of animals tested); % T/C data was calculated through mean survival time [% T/C=(MST treated/MST control)x100, where MST=mean survival time]; BWD refers to the body weight difference (grams) of test animals compared to control animals; KE refers to the log of the tumor cell population at the end of treatment relative to tumor cell population before treatment.
Table I sets out the identification of the compounds corresponding to the samples used in this and further Examples. Table II sets out the results of the P-388 tests.

[2] = system: MX-1 (mammary) human tumor xenograft; assay: MX-1 human mammary tumor xenograft (subrenal capsule), tumor weight evaluation; assay type: in vivo, human tumor in female athymic (nude) mice; conditions: single dose
Method: (§1) Tumor cells were inoculated ip(intraperitonal) into female, athymic, mice, being either MX-1 (mammary) or LOX (amelanotic melanoma) human tumor xenograph models. The human xenograft tumors were formed by heterotransplantation of surgically removed human tumors into the subrenal capsule of the nude mice. […] The hydrochloride salts of the compounds, designated H, K, and L, and the free base of H, as identified on Table I were administered to the viable human xenograft tumors by a single dose subcutaneous renal cavity (MX-1) injection or interperitonal (LOX) injection to the nude mice test animal in a suspension of 0.9% aqueous sodium chloride solution with "tween-80" and distilled water. The tested compounds were tested against a known cancer tumor inhibiting compound (control) 2,3-dihydro-5-(3'-4'-dichloropheny1)-6,7-bis(n-propylcarbanoxymethylcarbonate)-1H-pyrollizine.
(§2) In both the MX-1 and LOX model, results were expressed as a percentage of the test animal evaluation (T) compared to that for the control (C) and was reported as %T/C. These values are based on all mice in the test.
In the MX-1 model %T/C was evaluated from an estimate of tumor weight in untreated mice as compared to an estimate of tumor weight in treated mice. In such tumor weight evaluation, a low %T/C indicates effective treatment as the tumors of the treated mice are smaller than tumors of the untreated control mice.
(§3) The data presented comprises findings at optimal dosages of particularly effective compounds of the invention as compared to the control.

[3] = system: LOX (amelanotic melanoma) human tumor xenograft; assay: LOX human amelanotic melanoma xenograft, survival evaluation; assay type: in vivo, human tumor in female athymic (nude) mice; conditions: single dose
Method: as §1, §2
In the LOX model %T/C was evaluated by survival, meaning that the mean survival time of mice of the control group surviving (C) is compared to the mean survival time of mice who survived the test with treatment (T).
as §3

[4] = hygroscopicity of the hydrochloride salt (observation); assay type: physicochemical; conditions: crystalline hydrochloride salt
Method: A solution of the 1-n-propyl-2-methylthio-4,5-bis(N-methyl carbonyloxymethyl)imidazole prepared in Example XVI (1.72 g; 5.21 mmol) in anhydrous dichloromethane (50 mL) was stirred at 0°-5° C. while anhydrous hydrogen chloride gas was bubbled into the solution for 5 minutes through a gas dispersion tube. […] The residue was dried in vacuo for 10 minutes and dissolved in anhydrous dichloromethane (40 mL). The solution was reduced in volume to 10 mL to induce crystallization. Once crystallization had begun, methylene chloride (20 mL) was added and the cold (0° C.) solution was triturated for 10 minutes.

[5] = 6.25 mg/kg/inj, daily for 5 days
[6] = 12.5 mg/kg/inj, daily for 5 days
[7] = 100 mg/kg/inj, daily for 5 days
[8] = Mus musculus, P388, 120 h, read-out: % T/C (mean survival time)
[9] = optimal dosage 115 mg/kg, hydrochloride salt
[10] = optimal dosage 200 mg/kg, free base
[11] = optimal dosage 100 mg/kg, free base, listed as H (Free base)
[12] = optimal dosage 135 mg/kg, hydrochloride salt
[13] = 200 mg/kg/inj, daily for 5 days
[14] = optimal dosage 240 mg/kg, hydrochloride salt
[15] = 400 mg/kg/inj, daily for 5 days

| SMILES | BWD (body weight difference vs control) [1, 6] | KE (log tumor cell population end vs before treatment) [1, 6] | Tox.Day Surv. (survivors/animals tested) [1, 6] | BWD (body weight difference vs control) ([1]; 25 mg/kg/inj, daily for 5 days) | KE (log tumor cell population end vs before treatment) ([1]; 25 mg/kg/inj, daily for 5 days) | Tox.Day Surv. (survivors/animals tested) ([1]; 25 mg/kg/inj, daily for 5 days) | BWD (body weight difference vs control) ([1]; 50 mg/kg/inj, daily for 5 days) | KE (log tumor cell population end vs before treatment) ([1]; 50 mg/kg/inj, daily for 5 days) | Tox.Day Surv. (survivors/animals tested) ([1]; 50 mg/kg/inj, daily for 5 days) | BWD (body weight difference vs control) [1, 7] | KE (log tumor cell population end vs before treatment) [1, 7] | Tox.Day Surv. (survivors/animals tested) [1, 7] | response vs control in vivo at 12.5 mg/kg [1, 8] | response vs control in vivo at 25 mg/kg [1, 8] | response vs control in vivo at 50 mg/kg [1, 8] | response vs control in vivo at 100 mg/kg [1, 8] | BWD (body weight difference vs control) [1, 13] | KE (log tumor cell population end vs before treatment) [1, 13] | other results |
| --- | --- | --- | --- | --- | --- | --- | --- | --- | --- | --- | --- | --- | --- | --- | --- | --- | --- | --- | --- |
| CNC(=O)OCc1nc(SC)n(C)c1COC(=O)NC [H, 1-methyl-2-methylthio-4,5-bis-(N-methylcarbonyloxymethyl)imidazole] | -1.2 g | 1.05 | 6/6 | -1.4 g | 1.05 | 6/6 | -2.6 g | 4.21 | 6/6 | -4.1 g | 6.75 | 6/6 | 147% | 147% | 184% | 236% | – | – | BWD (body weight difference vs control) [1, 5]: -0.7 g; KE (log tumor cell population end vs before treatment) [1, 5]: -0.83; Tox.Day Surv. (survivors/animals tested) [1, 5]: 5/6; response vs control in vivo at 6.25 mg/kg [1, 8]: 125%; MX-1 % T/C wt. ([2]; optimal dosage 100 mg/kg, free base): -73%; MX-1 % T/C wt. [2, 9]: -63%; MX-1 % T/C wt. [2, 10]: -56%; MX-1 Cures [2, 10]: 2/6; LOX % T/C Survl. [3, 11]: 365% and 233%; LOX Cures [3, 11]: 5/6 and 2/6; LOX % T/C Survl. [3, 9]: 234%; LOX Cures [3, 9]: 2/6 |
| CCCCCCn1c(SC)nc(COC(=O)NC)c1COC(=O)NC [L, 1-n-hexyl-2-methylthio-4,5-bis-(N-methylcarbonyloxymethyl)imidazole] | – | – | – | – | – | – | – | – | – | – | – | – | – | – | – | – | – | – | MX-1 Cures ([2]; optimal dosage 270 mg/kg, hydrochloride salt): 6/6; LOX % T/C Survl. [3, 12]: 208%; LOX Cures [3, 12]: 1/6 |
| CNC(=O)OCc1ncn(-c2ccccc2)c1COC(=O)NC [A, 1-phenyl-4,5-bis(N-methylcarbonyloxymethyl)imidazole, reference compound] | -0.4 g | -1.55 | 5/5 | 0.2 g | -1.61 | 5/5 | -0.8 g | -1.52 | 5/5 | -0.4 g | -1.52 | 5/5 | 99% | 95% | 101% | 101% | -1.2 g | -1.55 | Tox.Day Surv. (survivors/animals tested) [1, 13]: 5/5; response vs control in vivo at 200 mg/kg [1, 8]: 99% |
| CCCn1c(SC)nc(COC(=O)NC)c1COC(=O)NC [K, 1-n-propyl-2-methylthio-4,5-bis-(N-methylcarbonyloxymethyl)imidazole] | – | – | – | – | – | – | – | – | – | – | – | – | – | – | – | – | – | – | MX-1 Cures [2, 14]: 6/6; LOX % T/C Survl. [3, 14]: 191%; LOX Cures [3, 14]: 1/6; hygroscopicity [4]: slightly hygroscopic |
| CC(C)NC(=O)OCc1ncn(-c2ccccc2)c1COC(=O)NC(C)C [B, 1-phenyl-4,5-bis[N-(2-propyl)carbonyloxymethyl]-imidazole, reference compound] | -0.4 g | -1.53 | – | -0.1 g | -1.53 | – | 0.8 g | -1.62 | – | 0.6 g | -1.69 | – | – | – | – | – | 0.2 g | toxic | BWD (body weight difference vs control) [1, 15]: -2.3 g; KE (log tumor cell population end vs before treatment) [1, 15]: toxic; response vs control in vivo at 12.5 mg/kg ([1]; Mus musculus, P388, 120 h, 12.5 mg/kg/inj, daily for 5 days, read-out: % T/C (mean survival time)): 103%; response vs control in vivo at 25 mg/kg ([1]; Mus musculus, P388, 120 h, 25 mg/kg/inj, daily for 5 days, read-out: % T/C (mean survival time)): 103%; response vs control in vivo at 50 mg/kg ([1]; Mus musculus, P388, 120 h, 50 mg/kg/inj, daily for 5 days, read-out: % T/C (mean survival time)): 97%; response vs control in vivo at 100 mg/kg ([1]; Mus musculus, P388, 120 h, 100 mg/kg/inj, daily for 5 days, read-out: % T/C (mean survival time)): 91%; response vs control in vivo at 200 mg/kg ([1]; Mus musculus, P388, 120 h, 200 mg/kg/inj, daily for 5 days, read-out: % T/C (mean survival time)): 90%; response vs control in vivo at 400 mg/kg ([1]; Mus musculus, P388, 120 h, 400 mg/kg/inj, daily for 5 days, read-out: % T/C (mean survival time)): 90% |
